Source: PubChem BioAssay (NCI)
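The compound was tested at five concentrations on cells cultured in 96-well plates, with a 48-hour exposure period. TGI: concentration producing complete growth inhibition.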 Where a SMILES comes first, the peptide text is derived from it. The star is where a group is joined. Boc = CC(C)(C)OC(=O)*; nBu = CCCC*

Columns and labels:
Test in all cases: NCI tumour cell line growth inhibition, 48 h
HS 578T breast = system: HS 578T breast
HCT-15 colon = system: HCT-15 colon
UACC-62 melanoma = system: UACC-62 melanoma
SK-MEL-28 melanoma = system: SK-MEL-28 melanoma
OVCAR-5 ovarian = system: OVCAR-5 ovarian
MALME-3M melanoma = system: MALME-3M melanoma
NCI-H226 lung = system: NCI-H226 lung
UO-31 renal = system: UO-31 renal
ACHN renal = system: ACHN renal
786-0 renal = system: 786-0 renal
NCI-H460 lung = system: NCI-H460 lung

| SMILES | TGI (HS 578T breast) | TGI (HCT-15 colon) | TGI (UACC-62 melanoma) | TGI (SK-MEL-28 melanoma) | TGI (OVCAR-5 ovarian) | TGI (MALME-3M melanoma) | TGI (NCI-H226 lung) | TGI (UO-31 renal) | TGI (ACHN renal) | TGI (786-0 renal) | TGI (NCI-H460 lung) |
| --- | --- | --- | --- | --- | --- | --- | --- | --- | --- | --- | --- |
| COc1cc(C2S/C(=C/c3ccccc3)C(=O)N2c2cccc(NC(C)=O)c2)cc(OC)c1OC (stereo unspecified) | 60.7 µM | > 100 µM | > 100 µM | > 100 µM | > 100 µM | 98.3 µM | > 100 µM | > 100 µM | > 100 µM |  |  |
| C/C(C=O)=C/[C@@]1(C)O[C@@H](C)[C@@](C)(O)[C@@H]1O | > 100 µM | 51.5 µM | > 100 µM | > 100 µM | > 100 µM | > 100 µM | > 100 µM | 4.71 µM | 44.4 µM | 34.6 µM | 64 µM |
| C#C[C@]1(O)CC[C@H]2[C@@H]3CCc4cc(O)ccc4[C@H]3CC[C@@]21C |  | > 100 µM | > 100 µM | > 100 µM | > 100 µM | > 100 µM | 92.8 µM |  | > 100 µM | > 100 µM | 82.5 µM |
| COC(=O)/C=C\C(C#N)(C#N)N=Cc1ccc(OC)cc1 | 33.7 µM | 13.2 µM | 30 µM | 12.8 µM | 40.7 µM | 4.01 µM | 25.3 µM | 5.96 µM | 8.64 µM | 4.62 µM | 42.5 µM |
| Cc1c(-c2ccccc2)[nH]c2cn[nH]c(=O)c12 | > 100 µM | > 100 µM | > 100 µM | > 100 µM | > 100 µM | > 100 µM |  | > 100 µM | > 100 µM | > 100 µM | > 100 µM |
| COc1cccc(C23CCN(C)C(CC(O)C2)C3)c1OC (stereo unspecified) | > 100 µM | > 100 µM | > 100 µM | > 100 µM | > 100 µM | > 100 µM | > 100 µM | > 100 µM | > 100 µM | > 100 µM |  |
| O=C(O)c1cc2ccccc2c(N=Nc2ccc(S(=O)(=O)Nc3ncccn3)cc2)c1O | > 100 µM | > 100 µM | > 100 µM | > 100 µM | > 100 µM | > 100 µM | > 100 µM | > 100 µM | > 100 µM | > 100 µM | > 100 µM |
| CN(CCc1ccccn1)c1ccc2c(c1)C(=O)c1ccccc1-2 | > 100 µM | > 100 µM | > 100 µM | > 100 µM | > 100 µM | > 100 µM | > 100 µM | > 100 µM | > 100 µM | > 100 µM | > 100 µM |
| CCc1n[nH]c(=O)n1/N=C(\C)c1ccccc1 | > 100 µM | > 100 µM | > 100 µM | > 100 µM | > 100 µM | > 100 µM | > 100 µM | > 100 µM | > 100 µM | > 100 µM |  |
| O=C(Cc1nc2ccccc2[nH]c1=O)c1c[nH]c2ccccc12 | > 100 µM | > 100 µM | 29 µM |  | 57.1 µM | > 100 µM | 31.3 µM | 33.7 µM | 22.3 µM | 29.3 µM | 32.4 µM |
| CCOc1nc2c(N3CCCC3)nc(N3CCNCC3)nc2nc1NCc1ccccc1 | 3.53 µM | 3.45 µM | 3.25 µM | 3.37 µM | 16.3 µM | 3.3 µM | 3.82 µM | 2.6 µM | 4.55 µM | 2.68 µM | 2.91 µM |
| CC1(C)OC[C@@H]([C@@]2(COC(c3ccccc3)(c3ccccc3)c3ccccc3)CC=CC(=O)O2)O1 | > 100 µM | > 100 µM | > 100 µM | > 100 µM | > 100 µM | > 100 µM | > 100 µM | > 100 µM | > 100 µM | > 100 µM | > 100 µM |
| COc1ccc(C2C3CCc4ccccc4C3=NN2S(=O)(=O)c2cccc(C(=O)O)c2OC)cc1 (stereo unspecified) |  | 0.778 µM | > 100 µM |  | > 100 µM | > 100 µM | > 100 µM | > 100 µM | 63.9 µM | > 100 µM | > 100 µM |
| Cc1ccc(-c2cc(-c3ccc(Cl)cc3)nc(/N=C3\C(=O)N(CN(C)C)c4ccccc43)n2)cc1 | > 100 µM | > 100 µM | > 100 µM | > 100 µM | > 100 µM | > 100 µM | > 100 µM | > 100 µM | > 100 µM | > 100 µM | > 100 µM |
| Oc1ccccc1C=Nc1ccc(-c2nc3ccccc3s2)cc1 | > 100 µM | > 100 µM | 66.3 µM | > 100 µM | > 100 µM | > 100 µM | 99.1 µM | > 100 µM | 73 µM | > 100 µM | 83.5 µM |
| CCCCOc1ccc(CC(NC(=O)OC(C)(C)C)C(=O)NC(C)C(=O)NC(Cc2ccccc2)C(=O)NCC(N)=O)cc1 (stereo unspecified) (Boc-Y(nBu)AFG-NH2; configuration not given here) | > 100 µM | > 100 µM | > 100 µM | > 100 µM | > 100 µM | > 100 µM | > 100 µM | > 100 µM | > 100 µM | > 100 µM | > 100 µM |
